Data on 43 molecules can be found in patent publication US20060089371A1, “Phenyl or heteroaryl amino alkane derivatives as ip receptor antagonist” (Bayer HealthCare AG, priority 2002, published 2006).

Where only a bound is given, the exact number is not on record here.

The term melting point denotes the temperature of the solid-liquid transition. As usually defined, the IC50 is the concentration that inhibits the measured activity by half.

The target of one data set is T1, IP receptor (Homo sapiens, UniProt P43119).
T1 construct: one million cells in 160 μl aliquot of cell suspension were put in a well of 96 well plate; host or cells: HEL 92.1.7 human erythroleukemia cells (whole cells)
As to the kind of experiment: IP receptor binding/cAMP in HEL cells ([3H]-iloprost binding, Assay 1; iloprost-induced cAMP production, Assay 2). The note with it: compounds of about 40 to 90% purity, read-out: In vitro activity grade (IC50 class). As for the experimental part:
[Measurement of the [^3H]-iloprost Binding to HEL Cells] (Assay 1)
A human erythloleukemia cell line, HEL 92.1.7, was purchased from American Type Culture Correction and maintained in RPMI-1640 medium (Gibco BRL) supplemented with 10% fetal calf serum (FCS), 2 mM glutamine, 4.5 g/L glucose, 10 mM Hepes, 1 mM sodium pyruvate, 100 U/ml penicillin, and 100 μg/ml streptomycin in a humidified 5% CO2 atmosphere at 37° C. Cells were collected with centrifugation and washed with binding assay buffer (BAB: 50 mM Tris-HCl, 5 mM MgCl2 (pH 7.5)). Cells were suspended at the density of 6.25×10^6 cells/ml in BAB, and one million cells in 160 μl aliquot of cell suspension were put in a well of 96 well plate (Falcon). Then, 20 μl of compound solution, 100 μM of iloprost (for non-specific binding), or buffer alone (total binding), diluted with 1% DMSO in BAB was added. Finally, another 20 μl containing [^3H]-iloprost (0.02 μCi, 0.5-1 pmol) in BAB was added and incubated at room temperature for 30 min with a gentle shaking. Cell suspension was then transferred to a well of MultiScreen plate with GF/C glass filters (Millipore) to harvest cells. Cells were washed twice with 200 μl of ice-cold BAB and the plate was kept at 55° C. for 30 min to dry filters. The filter in the well was punched out to a counting tube and 2 ml of Ultima Gold XR (Packard) was added. [^3H]-radio activity in the filter was measured by a liquid scintillation counter (Beckman, USA).
[Iloprost-Induced cAMP Production Assay in HEL Cells] (Assay 2)
HEL cells were collected with centrifugation and washed with cAMP assay buffer (CAB: Hank's balanced salt solution, 17 mM Hepes, 0.1% bovine serum albumin, 1 mM IBMX, 0.4% DMSO, and 1 mM L-ascorbic acid sodium salt (pH 7.4)). Cells were suspended at the density of 2.5×10^5 cells/ml in CAB, and twenty thousand cells in 80 μl aliquot of cell suspension were put in a well of 96 well plate (Falcon). Then, 10 μl of compound solution diluted with 1% DMSO in CAB or buffer alone was added. The plate was incubated at 37° C. for 30 min. Then, another 10 μl containing 100 nM iloprost in CAB or buffer alone was added and further incubated at 37° C. for 30 min. cAMP content in the well was measured by a cAMP ELISA kit (Applied Biosystems, USA).
The data corresponds to the compounds as yielded by solid phase synthesis and thus to levels of purity of about 40 to 90%. For practical reasons, the compounds are grouped in three classes of activity as follows: IC50=A<0.1 μM≦B<1 μM≦C

T1 sequence (P43119 whole entry): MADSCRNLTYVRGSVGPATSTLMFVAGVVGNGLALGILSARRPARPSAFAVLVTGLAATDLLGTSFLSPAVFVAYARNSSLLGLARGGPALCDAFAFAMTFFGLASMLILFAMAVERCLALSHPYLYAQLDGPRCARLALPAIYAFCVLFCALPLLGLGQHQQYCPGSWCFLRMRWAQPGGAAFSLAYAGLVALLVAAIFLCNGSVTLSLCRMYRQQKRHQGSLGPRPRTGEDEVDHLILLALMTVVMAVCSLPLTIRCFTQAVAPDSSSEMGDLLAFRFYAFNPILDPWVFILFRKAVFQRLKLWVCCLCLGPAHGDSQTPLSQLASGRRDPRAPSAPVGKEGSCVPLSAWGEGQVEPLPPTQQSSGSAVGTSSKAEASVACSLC

On to `O=C(O)[C@@H](Cc1ccccn1)Nc1cc(-c2ccc(OCc3ccccc3)cc2)ncn1` [Example 1-4, N-{6-[4-(benzyloxy)phenyl]pyrimidin-4-yl}-3-pyridin-2-yl-D-alanine], for which the melting point is 142 °C. Further, the IC50 on IP receptor is below 100 nM.

For `O=C(Nc1ccccc1)c1ccc(-c2cc(NC(Cc3ccccc3)C(=O)O)ncn2)cc1` (centres unmarked) [Example 1-5], the melting point was 228 to 231 °C (dec.). The IC50 on IP receptor was in the range of 100 to 1000 nM.

In turn, `O=C(O)C(Cc1ccccc1)Nc1cc(-c2ccc(CCCc3ccccc3)cc2)ncn1` (centres unmarked) [Example 1-6] yielded a melting point of 112 to 114 °C. Further, at IP receptor, the IC50 is below 100 nM.

On to `O=C(O)C(Cc1ccccc1)Nc1cc(-c2ccc(OCc3ccccc3)cc2)ncn1` (centres unmarked) [Example 1-7], for which the melting point was 175 to 178 °C. The IC50 at IP receptor is below 100 nM.

For the molecule `O=C(O)C(Cc1ccccc1)Nc1cc(-c2ccc(Oc3ccccc3)cc2)ncn1` (centres unmarked) [Example 1-8], the melting point was 214 to 217 °C (dec.). Further, on IP receptor, the IC50 is below 100 nM.

In the case of `O=C(O)C(Cc1ccccc1)Nc1ncnc(-c2ccc(OCc3ccccc3)cc2)c1[N+](=O)[O-]` (centres unmarked) [Example 1-9], the melting point is below 80 °C. The half-maximal inhibitory concentration (IC50) on IP receptor is above 1000 nM.

`O=C(O)C(Cc1ccccc1)Nc1cc(-c2ccc(-c3ccccc3)cc2)ncn1` (centres unmarked) [Example 1-10]: the melting point is 146 to 148 °C (dec.). At IP receptor, the IC50 was below 100 nM.

In the case of `CCC(C)C(Nc1cc(-c2ccc(OCc3ccccc3)cc2)ncn1)C(=O)O` (centres unmarked) [Example 1-11], the melting point came out at 56 °C. Besides, at IP receptor, the IC50 is 100 to 1000 nM.

`O=C(O)C(Cc1ccc(F)cc1)Nc1cc(-c2ccc(OCc3ccccc3)cc2)ncn1` (centres unmarked) [Example 1-12] showed a melting point of 186 °C. For the same molecule, the half-maximal inhibitory concentration (IC50) at IP receptor was below 100 nM.

For `CCCCC(Nc1cc(-c2ccc(OCc3ccccc3)cc2)ncn1)C(=O)O` (centres unmarked) [Example 1-13], the melting point is 187 °C. In addition, the half-inhibitory concentration (IC50) on IP receptor is below 100 nM.

For the molecule `O=C(O)C(CCc1ccccc1)Nc1cc(-c2ccc(OCc3ccccc3)cc2)ncn1` (centres unmarked) [Example 1-14], the melting point fell in the range of 226 to 228 °C. At IP receptor, the IC50 was below 100 nM.

In turn, `CC(C)CC(Nc1cc(-c2ccc(OCc3ccccc3)cc2)ncn1)C(=O)O` (centres unmarked) [Example 1-15] showed a melting point of 244 to 246 °C. For the same molecule, the IC50 at IP receptor was 100 to 1000 nM.

`CC(C)C(Nc1cc(-c2ccc(OCc3ccccc3)cc2)ncn1)C(=O)O` (centres unmarked) [Example 1-16] yielded a melting point of 235 to 237 °C. In addition, the IC50 on IP receptor is 100 to 1000 nM.

On to `CSCCC(Nc1cc(-c2ccc(OCc3ccccc3)cc2)ncn1)C(=O)O` (centres unmarked) [Example 1-17], for which the melting point was 210 °C. The IC50 on IP receptor is below 100 nM.

Regarding `CC(Nc1cc(-c2ccc(OCc3ccccc3)cc2)ncn1)C(=O)O` (centres unmarked) [Example 1-18], the melting point stood at 158 °C. Besides, the IC50 on IP receptor fell in the range of 100 to 1000 nM.

`CC(Cc1ccccc1)(Nc1cc(-c2ccc(OCc3ccccc3)cc2)ncn1)C(=O)O` (centres unmarked) [Example 1-19] yielded a melting point of 187 °C. Further, the IC50 on IP receptor was below 100 nM.

Molecule `O=C(O)C(Cc1ccccc1)Nc1ncnc(-c2ccc(OCc3ccccc3)cc2)c1F` (centres unmarked) [Example 1-20] gave a melting point of 145 to 146 °C. Further, on IP receptor, the IC50 is below 100 nM.

As for `O=C(O)C(Cc1ccc(Cl)cc1)Nc1cc(-c2ccc(OCc3ccccc3)cc2)ncn1` (centres unmarked) [Example 1-22], the melting point was 150 to 153 °C (dec.). For the same molecule, at IP receptor, the IC50 is below 100 nM.

Consider `C#CCC(Nc1cc(-c2ccc(OCc3ccccc3)cc2)ncn1)C(=O)O` (centres unmarked) [Example 1-23], for which the melting point came out at 155 °C. In addition, the IC50 on IP receptor was below 100 nM.

The molecule `CS(=O)(=O)CCC(Nc1cc(-c2ccc(OCc3ccccc3)cc2)ncn1)C(=O)O` (centres unmarked) [Example 1-24] came in with a melting point of 138 °C. Also, on IP receptor, the IC50 was in the range of 100 to 1000 nM.

In turn, `O=C(O)C(Cc1ccc([N+](=O)[O-])cc1)Nc1cc(-c2ccc(OCc3ccccc3)cc2)ncn1` (centres unmarked) [Example 1-25] returned a melting point of 211 °C. In addition, at IP receptor, the IC50 is below 100 nM.

Molecule `O=C(O)C(Cc1ccc(O)cc1)Nc1cc(-c2ccc(OCc3ccccc3)cc2)ncn1` (centres unmarked) [Example 1-26] returned a melting point of 233 to 236 °C. Besides, the IC50 at IP receptor was below 100 nM.

Molecule `CC(O)C(Nc1cc(-c2ccc(OCc3ccccc3)cc2)ncn1)C(=O)O` (centres unmarked) [Example 1-27] came in with a melting point of 211 to 214 °C. Besides, the IC50 on IP receptor is 100 to 1000 nM.

Molecule `C=CCC(Nc1cc(-c2ccc(OCc3ccccc3)cc2)ncn1)C(=O)O` (centres unmarked) [Example 1-28] returned a melting point of 135 to 137 °C. The IC50 on IP receptor is below 100 nM.

The molecule `Nc1ccc(CC(Nc2cc(-c3ccc(OCc4ccccc4)cc3)ncn2)C(=O)O)cc1` (centres unmarked) [Example 1-29] had a melting point of 145 °C. Further, the IC50 on IP receptor was below 100 nM.

Consider `O=C(O)C(Cc1ccccc1)Nc1ncnc(-c2ccc(OCc3ccccc3)cc2)n1` (centres unmarked) [Example 1-30], for which the melting point fell in the range of 186 to 188 °C. Further, on IP receptor, the IC50 is below 100 nM.

In the case of `O=C(O)C(Cc1ccccn1)Nc1cc(-c2ccc(OCc3ccccc3)cc2)ncn1` (centres unmarked) [Example 1-31], the melting point lay in the range of 218 to 223 °C. Moreover, at IP receptor, the IC50 is below 100 nM.

With `O=C(O)C(CC(F)(F)F)Nc1cc(-c2ccc(OCc3ccccc3)cc2)ncn1` (centres unmarked) [Example 1-32], the melting point lay in the range of 156 to 158 °C. Also, on IP receptor, the IC50 was below 100 nM.

With `O=C(O)C(COCc1ccccc1)Nc1cc(-c2ccc(OCc3ccccc3)cc2)ncn1` (centres unmarked) [Example 1-33], the melting point was in the range of 132 to 135 °C. Also, the IC50 at IP receptor was below 100 nM.

On to `COCC(Nc1cc(-c2ccc(OCc3ccccc3)cc2)ncn1)C(=O)O` (centres unmarked) [Example 1-34], for which the melting point fell in the range of 115 to 120 °C. Also, at IP receptor, the IC50 is below 100 nM.

Turning to `CC(Cc1cccc(O)c1)(Nc1cc(-c2ccc(OCc3ccccc3)cc2)ncn1)C(=O)O` (centres unmarked) [Example 1-35], the melting point was in the range of 265 to 267 °C. The 50% inhibitory concentration (IC50) at IP receptor was above 1000 nM.

In the case of `O=C(O)C(Cc1ccccc1)Nc1ncnc(-c2ccc(OCC3CC3)cc2)c1F` (centres unmarked) [Example 1-36], the melting point was 170 to 173 °C. For the same molecule, the IC50 at IP receptor is below 100 nM.

The molecule `O=C(O)C(Cc1c[nH]cn1)Nc1cc(-c2ccc(OCc3ccccc3)cc2)ncn1` (centres unmarked) [Example 1-39] gave a melting point of 183 to 188 °C. The IC50 at IP receptor was 100 to 1000 nM.

`O=C(O)C(Cc1ccc(Cl)cc1)Nc1cc(-c2ccc(OCC3CC3)cc2)ncn1` (centres unmarked) [Example 1-40] came in with a melting point of 166 to 169 °C. On IP receptor, the IC50 was below 100 nM.

The molecule `CCCCC(Nc1cc(-c2ccc(OCC3CC3)cc2)ncn1)C(=O)O` (centres unmarked) [Example 1-41] returned a melting point of 100 to 104 °C. For the same molecule, the IC50 on IP receptor was in the range of 100 to 1000 nM.

As to `O=C(O)C(Cc1ccc(F)cc1)Nc1cc(-c2ccc(OCC3CC3)cc2)ncn1` (centres unmarked) [Example 1-42], the melting point lay in the range of 126 to 128 °C. Further, the IC50 at IP receptor is below 100 nM.

The molecule `O=C(O)C(Cc1ccccc1)Nc1cc(-c2cccc(OCc3ccccc3)c2)ncn1` (centres unmarked) [Example 1-43] yielded a melting point of 150 to 152 °C. The IC50 at IP receptor is above 1000 nM.

In turn, `O=C(O)C(Cc1ccccn1)Nc1cc(-c2ccc(OCC3CC3)cc2)ncn1` (centres unmarked) [Example 1-44] gave a melting point of 105 to 107 °C. For the same molecule, the IC50 on IP receptor is 100 to 1000 nM.

For the molecule `O=C(O)C(Cc1ccccn1)Nc1ncnc(-c2ccc(OCc3ccccc3)cc2)c1F` (centres unmarked) [Example 1-45], the melting point is 177 to 178 °C. At IP receptor, the IC50 is below 100 nM.

With `O=C(O)C(Cc1ccccn1)Nc1cc(-c2ccc(OCc3ccccc3)c(F)c2)ncn1` (centres unmarked) [Example 1-46], the melting point was determined as 107 °C. Also, the IC50 on IP receptor is below 100 nM.

Regarding `O=C(O)C(Cc1ccccc1)Nc1cc(-c2ccc(OCc3ccccc3)c(F)c2)ncn1` (centres unmarked) [Example 1-47], the melting point was 117 to 120 °C. The IC50 at IP receptor is below 100 nM.

The molecule `O=C(O)C(Cc1cccnc1)Nc1cc(-c2ccc(OCc3ccccc3)cc2)ncn1` (centres unmarked) [Example 1-48] returned a melting point of 188 to 192 °C. The IC50 on IP receptor was below 100 nM.

As for `O=C(O)[C@H](Cc1ccccc1)Nc1cc(-c2ccc(OCC3CC3)cc2)ncn1` [Example 1-49], the melting point was in the range of 180 to 185 °C. Further, the IC50 on IP receptor was above 1000 nM.
